In data set [1] the test system is leukotriene E induced bronchoconstriction. In words: Guinea pig bronchoconstriction, in vivo (aerosol). The arrangement: species or system guinea pig (Hartly strain). The following applies: aerosol at concentration inhibiting bronchoconstriction by 80%. As for the experimental part:
(c) Guinea Pig Bronchoconstriction, In Vivo (Aerosol):
Male guinea pigs (Hartly strain) weighing 300 to 500 g are anesthetized with urethane (2 g/kg) intraperitoneally and a polyethylene cannula is inserted into the jugular vein for drug administration. Tracheal pressure is recorded from a cannula inserted in the trachea and connected to a Statham pressure transducer. After surgical preparation of the animals, a period of time is allowed for pulmonary functions to stabilize. The test compound is administered according to the following protocol. Propranolol (0.1 mg/kg) is administered intravenously while the animals breathed spontaneously. Five minutes thereafter, the animals are exposed for a five minute period to a 1% (w/v) aerosol solution of test compound (adjusted to an alkaline pH where necessary for drug solubilization) or to distilled water of the appropriate pH (for control purposes). A Monaghan (Model 750) ultrasonic nebulizer is used to administer all test compounds by inhalation. The nebulizer ultrasonic frequency is adjusted to produce particles in the 1-8μ diameter range (average 3μ). Aqueous solutions are prepared fresh and introduced into the chamber of the nebulizer. The output of the nebulizer is made available to the animal by directing a bias flow of aerosol through a y tube connected to the tracheal cannula. At the end of the exposure period, the animals are paralyzed with succinylcholine (1.2 mg/kg, i.v.) and mechanically respirated (Harvard rodent respirator) at 40 breaths/minute and 2.5 cc tidal volume. Animals are then challenged with a maximum constrictory dose of leukotriene E delivered intravenously 30 seconds after administration of the succinylcholine.
The change (cm H2 O) between pre and peak ventilatory pressure readings is averaged for three control animals and five drug treated animals. The percent inhibition is calculated from the following formula:
(Control-Drug Tested/Control)×100
When various drug concentrations are tested, the percent inhibition at each concentration is plotted as log concentration (abscissa) versus percent inhibition (ordinate) and the IC50 is determined from linear regression analysis.
In order to determine the aerosol half-life (t 1/2), the animals are prepared as described above, except that the time between aerosol exposure and challenge with leukotriene E is varied. All compounds are administered at the concentration necessary to inhibit leukotriene-induced bronchoconstriction by 80%. Biological half-life is calculated from plots of time (abscissa) versus log percent inhibition (ordinate).

The subject of data set [2] is arachidonic acid induced platelet aggregation. In words: Arachidonic acid induced platelet aggregation in vitro. Format: cell-based. The following applies: read-out: AA (IC50, arachidonic acid induced platelet aggregation). As for the experimental part: (§1) (1) Assay for Platelet Aggregation In Vitro
(§2) The turbidometric method of G. V. R. Born, Nature 194, 927 (1962) is used. Platelet rich plasma (PRP) and platelet poor plasma (PPP) are prepared with 0.38% sodium citrate-treated blood. Speed and time of centrifugation varied with different species; human:160 g for 20 minutes, dog:160 g for 15 minutes, guinea pig and rabbit:160 g for 15 minutes, and rat:230 g for 10 minutes. Aggregation is monitored with a Payton dual channel module or Chronolog lumiaggregometer when the release of ATP is simultaneously measured. 0.45 ml of PRP is added to a cuvette and prewarmed to 37° C. The stimulant (arachidonic acid or synthetic platelet activating factor) is added in volumes of 50 μl; all other agents in 5 μl. Vehicles are added to samples not containing agents. 0 to 100% light transmission is set with PRP and PPP. % aggregation is calculated from the % increase in light transmission at 5 minutes after the addition of the aggregating agent. For inhibition of aggregation studies the inhibitor is added first and preincubated with the platelets for 1 minute with stirring, followed by the stimulant. % inhibition is calculated from the % aggregation with and without the test compound. [formula]

Data set [3] deals with platelet activating factor induced platelet aggregation. The data set is described as follows: Platelet activating factor induced platelet aggregation in vitro. The format is cell-based. The settings on record: racemic platelet activating factor; read-out: PAF (IC50, platelet activating factor induced platelet aggregation). On the procedure:
as §1, §2

Data set [4] has as its system histamine-induced constriction in guinea pig ilea. In words: Antagonism of histamine-induced constriction in guinea pig ilea. The following applies: 1×10^-7 M histamine. As for the experimental part:
(f) Antagonism of Histamine-induced Constriction in Guinea Pig Ilea
Antihistaminic activity was determined on a segment of guinea pig ileum that was suspended in a 37° C. bath of oxygenated Tyrodes solution. At 4 minute intervals, the ileum was challenged with 1×10^-7 M histamine for sufficient time to produce a peak contraction and then washed with fresh Tyrodes solution. After the tissue response to histamine had stabilized, the ileum was pretreated with the standard antihistaminic compound, pyrilamine maleate, for 1 minute prior to rechallenge with histamine, the contraction recorded, and the tissue washed with Tyrodes solution. […] By the IC50 for pyrilamine maleate in the test system was 1×10^-8 M. IC50 's for test drugs were determined by this same procedure.

For data set [5], the system named is leukotriene E (LTE) induced skin wheal formation in rat skin. The data set is described as follows: LTE-induced skin wheal formation in rat. The format is in vivo. The following applies: for ED50: rat skin wheal, read-out: ID50 (the source's name). On the procedure:
(a) Methodology for LTE-induced Skin Wheal Formation in Rat. The ability of a drug to inhibit leukotriene E (LTE) induced skin wheal formation in rat skin is measured. In this model system a dose of LTE which gives a maximal wheal response, is injected (in 0.05 ml of saline) intradermally into anesthetized rats which have been pretreated for 30 minutes with 50 mg/kg of pyrilamine maleate and 4 mg/kg of methyl […] maleate (both administered intraperitoneally). The animal is then immediately treated with test drug (at 10 mg/kg, i.v.) followed by an intravenous injection of Evans blue (0.5%) into the tail vein of the animal. Thirty minutes later the animals are sacrificed and the increase in capillary permeability induced by LTE is reflected by the migration of dye into the injection point in the skin (the response being quantitated by the size, in mm, of the dye spot in the skin). The average response in 5 animals (4 intradermal injections of LTE per animal) treated with the test compound is compared with the response elicited in a similar group of animals which were not treated with the drug. For oral studies, the test animals are pretreated two hours prior to intradermal injection of LTE.

The nature of data set [6]: LD50 in mice (acute toxicity). The following applies: mouse, in vivo, po, orally.
The test system of data set [7] is leukotriene E induced bronchoconstriction. In words: LTE-induced bronchoconstriction in guinea pigs, in vivo (i.v. / oral). More on the design: species or system guinea pig (Hartley strain). The settings on record: for ED50: read-out: ID50 (the source's name).
Data set [8] relates to acetylcholine-induced constriction in guinea pig ilea. In words: Antagonism of acetylcholine-induced constriction in guinea pig ilea. The settings on record: 5.0×10^-7 M acetylcholine; read-out: IC50 antagonism of acetylcholine-induced constrictions. On the procedure:
(e) Antagonism of Acetylcholine-induced Constriction in Guinea Pig Ilea
Anticholinergic activity was determined on a segment of guinea pig ileum that was suspended in a 37° C. bath of oxygenated Tyrodes solution. At 4 minute intervals, the ileum was challenged with 5.0×10^-7 M acetylcholine for sufficient time to produce a peak contraction and then washed with fresh Tyrodes solution. After the tissue response to acetylcholine had stablized, the ileum was pretreated with the standard anticholinergic, atropine sulfate, for 1 minute prior to rechallenge with acetylcholine, the contraction recorded and the tissue washed with Tyrodes solution. […] The IC50 for atropine was 1×10^-8 M. THe IC50 's for test drugs were determined by this same procedure.

The subject of data set [9] is SRS-A induced contraction of guinea pig ileum. In words: In vitro SRS-A antagonism. The settings on record: 30 seconds pretreatment. As for the experimental part:
(j) In vitro SRS-A Antagonism
SRS-A was determined by bioassay on the guinea pig ileum using a modification of the method described by Orange et al., Adv. Immunol., 1969, 10, 105. A 1.5 cm segment of the ileum, obtained from male guinea pigs (175-200 g), was suspended in an organ bath containing Tyrodes solution with 10^-6 M atropine sulfate and 10^-6 M pyrilamine maleate. The bath was maintained at 37° C. and gassed with a mixture of 95 percent oxygen and 5 percent carbon dioxide. The ileum was attached to a strain gauge transducer and isotonic contractions recorded by a strip chart recorder. A resting tension of 0.5 g was applied and the tissue allowed to equilibrate for 1 hour.
The SRS-A used in these studies was obtained by challenging a large quantity of chopped lung fragments from actively sensitized guinea pigs with egg albumin in vitro. The animals were sensitized to egg albumin by an intraperitoneal injection of the antigen (1 ml of 10 mg/ml) in saline 28 to 45 days prior to challenge. The in vitro challenge was carried out by first preincubating the lung tissue (40 mg/ml) at 37° C. in Tyrodes solution for 5 minutes, adding the egg albumin ([…] final concentration) to the fragments and after a 10 minute challenge, separating the media containing the SRS-A from the lung tissue by filtration on Whatman #1 filter paper. The concentration of SRS-A in the filtrate was calibrated by comparison of the contraction amplitude elicited in the bioassay system by a given volume of the supernatant with contractions obtained by varying concentrations of histamine. One unit of SRS-A is equivalent to that quantity which will give the same contraction as 5 ng of histamine. After standarization, the SRS-A was stored in small aliquots at -80° C. for further use. […] SRS-A antagonism was determined by pretreating the ileum with drug for 30 seconds prior to the addition of a concentration of SRS-A which have a submaximal response, determination of the amplitude of contraction elicited in the presence of drug and then washing the ileum with Tyrodes. […]

Counter-ions that a name gives are not always drawn. Like-named read-outs stand apart in the source and are kept apart here.

Broadly, the IC50 is the concentration that inhibits the measured activity by half. By LD50 is commonly meant the dose expected to kill half of the subjects tested. A low value points to greater toxicity. One may read the inhibition as the percentage by which the read-out fell short of the control. Low readings indicate a response near the control, high ones a response far below the control.

In [1], `CCCCC[C@H](O)/C=C/[C@H]1[C@H](O)CC(=O)[C@@H]1C/C=C\CCCC(=O)O` [PGE2] registered a Biological half-life of 2.1 min.

As for `CC(C)c1ccc2nc3ccc(C(=O)NCCCCCc4ccncc4)cn3c(=O)c2c1` [Example 11, N-[5-(4-Pyridyl)pentyl]-2-(1-methylethyl)-11-oxo-11H-pyrido[2,1-b]quinazoline-8-carboxamide], the IC50 in data set [2] and in data set [3] was less than 10 µM each time.

As to `CC(C)c1ccc2nc3ccc(C(=O)NCCSc4ccncc4)cn3c(=O)c2c1` [Example 12, N-[2-(4-Pyridylthio)ethyl]-2-(1-methylethyl)-11-oxo-11H-pyrido[2,1-b]quinazoline-8-carboxamide], the IC50 in data set [2] and in [3] was less than 10 µM throughout.

Take `CC(C)Oc1ccc2nc3ccc(C(=O)NCCCCc4cccnc4)cn3c(=O)c2c1` [Example 19, 2-(1-Methylethoxy)-N-[4-(3-pyridyl)butyl]-11-oxo-11H-pyrido[2,1-b]quinazoline-8-carboxamide]: the half-maximal inhibitory concentration (IC50) in data set [2] and in data set [3] was less than 10 µM each time.

Take `COc1ccc(CN(CCN(C)C)c2ccccn2)cc1` [pyrilamine maleate, reference compound]: it took 0.01 µM to reach half-maximal inhibition in data set [4] (IC50).

Consider `CC(C)c1ccc2nc3ccc(C(=O)NCCCCc4ccncc4)cn3c(=O)c2c1` [2-(1-methylethyl)-N-[4-(4-pyridyl)butyl]-11-oxo-11H-pyrido[2,1-b]quinazoline-8-carboxamide], for which the IC50 in data set [2] was greater than 10 µM; in data set [3], less than 10 µM. Also, the ED50 was 10 mg/kg in data set [5] (iv); 90 mg/kg in [5] (po); 1.9 mg/kg in data set [7] (Cavia porcellus, iv); 57 mg/kg in [7] (Cavia porcellus, po, orally (2 hours pretreatment)). For the same compound, the LD50 in data set [6] is greater than 1000 mg/kg.

Consider `CN1[C@@H]2CC[C@H]1CC(OC(=O)C(CO)c1ccccc1)C2` (stereo partly shown) [atropine, atropine sulfate, reference compound], for which the IC50 in data set [8] came to 0.01 µM.

In the case of `O=C(NCCCCc1cccnc1)c1ccc2nc3ccc(O)cc3c(=O)n2c1` [Example 22, 2-Hydroxy-N-[4-(3-pyridyl)butyl]-11-oxo-11H-pyrido[2,1-b]quinazoline-8-carboxamide], the IC50 in [2] and in data set [3] was less than 10 µM each time.

With `CCCc1c(OCC(O)COc2ccc3c(=O)cc(C(=O)O)oc3c2CCC)ccc(C(C)=O)c1O` (stereo not shown) [FPL 55712, 7-[3-(4-Acetyl-3-hydroxy-2-propylphenoxy)-2-hydroxypropoxy]-4-oxo-8-propyl-4H-1-benzopyran-2-carboxylic acid, reference compound], the IC50 in data set [9] came to 0.03 µM. The same compound yielded a Biological half-life in data set [1] of 77 min. For the same compound, the inhibition at 10 mg/kg in data set [5] (Rattus norvegicus, iv, 10 mg/kg) is 88%; in data set [7] (Cavia porcellus, iv, 10 mg/kg), 98%. The “oral activity, LTE-induced skin wheal” value in data set [5] (orally) is “inactive orally”. For the same compound, the “oral activity, LTE-induced bronchoconstriction” value in data set [7] (orally) is “orally inactive”.

With `CC(C)c1ccc2nc3ccc(C(=O)NCCCCCn4ccnc4)cn3c(=O)c2c1` [Example 16, N-[5-(1H-Imidazol-1-yl)pentyl]-2-(1-methylethyl)-11-oxo-11H-pyrido[2,1-b]quinazoline-8-carboxamide], the IC50 in data set [2] is less than 10 µM; in [3] it was greater than 10 µM.

Take `Cc1ccc2nc3ccc(C(=O)NCCCCc4cccnc4)cn3c(=O)c2c1` [Example 17, 2-Methyl-N-[4-(3-pyridyl)butyl]-11-oxo-11H-pyrido[2,1-b]quinazoline-8-carboxamide]: the half-maximal inhibitory concentration (IC50) in [2] is less than 10 µM; in data set [3] it was greater than 10 µM.

As to `CC(C)c1ccc2nc3ccc(C(=O)OCCCc4cccnc4)cn3c(=O)c2c1` [Example 1, 2-(1-methylethyl)-11-oxo-11H-pyrido[2,1-b]quinazoline-8-carboxylic acid 3-(3-pyridyl)propyl ester], the IC50 in [2] is greater than 10 µM; in [3], less than 10 µM.

Turning to `CC(C)NCC(O)c1ccc(O)c(O)c1` (stereo not shown) [Isoproterenol], in data set [1], the Biological half-life was determined as 19.4 min.

The record behind these values is patent US4551460A, “Pyrido[2,1-b]quinazoline derivatives useful as agents for treatment of allergic conditions and vascular disorders involving thrombosis” (priority 1983, dated 1985).
